Test results from ChEMBL document CHEMBL3227963, “Synthesis and antitumor activity of 4'-O-methyldaunorubicin, 4'-O-methyladriamycin, and their 4'-epi analogues” (J Med Chem, 1979).

Key:
[1] = system: P388; assay: Antitumor activity against mouse P388 cells allografted in ip dosed mouse assessed as optimal dose; format: functional
[2] = system: P388; assay: Antitumor activity against mouse P388 cells allografted in mouse assessed as average survival time at 2.9 mg/kg, ip relative to untreated control; format: functional; conditions: route intraperitoneal
[3] = system: Mus musculus; assay: Toxicity in mouse allografted with mouse P388 cells at 2.9 mg/kg, ip; format: organism-based; design: dose 2.9 mg/kg, route intraperitoneal; conditions: in vivo
[4] = system: P388; assay: Antitumor activity against mouse P388 cells allografted in mouse assessed as average survival time at 6.6 mg/kg, ip relative to untreated control; format: functional; conditions: route intraperitoneal
[5] = system: Mus musculus; assay: Toxicity in mouse allografted with mouse P388 cells at 6.6 mg/kg, ip; format: organism-based; design: dose 6.6 mg/kg, route intraperitoneal; conditions: in vivo
[6] = system: L1210; assay: Antitumor activity against mouse L1210 cells allografted in mouse assessed as average survival time at 4.4 mg/kg, ip relative to untreated control; format: functional; conditions: route intraperitoneal
[7] = system: L1210; assay: Antitumor activity against mouse L1210 cells allografted in mouse assessed as average survival time at 6.6 mg/kg, ip relative to untreated control; format: functional; conditions: route intraperitoneal
[8] = system: L1210; assay: Antitumor activity against mouse L1210 cells allografted in mouse assessed as average survival time at 10 mg/kg, ip relative to untreated control; format: functional; conditions: route intraperitoneal
[9] = system: P388; assay: Antitumor activity against mouse P388 cells allografted in mouse assessed as average survival time at 20 mg/kg, ip relative to untreated control; format: functional; conditions: route intraperitoneal
[10] = system: Mus musculus; assay: Toxicity in mouse allografted with mouse P388 cells at 20 mg/kg, ip; format: organism-based; design: dose 20 mg/kg, route intraperitoneal; conditions: in vivo
[11] = system: L1210; assay: Antitumor activity against mouse L1210 cells allografted in mouse assessed as average survival time at 15 mg/kg, ip relative to untreated control; format: functional; conditions: route intraperitoneal
[12] = system: L1210; assay: Antitumor activity against mouse L1210 cells allografted in mouse assessed as average survival time at 22.5 mg/kg, ip relative to untreated control; format: functional; conditions: route intraperitoneal
[13] = system: P388; assay: Antitumor activity against mouse P388 cells allografted in mouse assessed as average survival time at 4.4 mg/kg, ip relative to untreated control; format: functional; conditions: route intraperitoneal
[14] = system: Mus musculus; assay: Toxicity in mouse allografted with mouse P388 cells at 4.4 mg/kg, ip; format: organism-based; design: dose 4.4 mg/kg, route intraperitoneal; conditions: in vivo

Row | Structure (SMILES) | Optimal dose [1] [mg/kg] | T/C [2] [%] | Activity [3] | T/C [6] [%] | T/C [7] [%] | T/C [8] [%] | other results
1 | COc1cccc2c1C(=O)c1c(O)c3c(c(O)c1C2=O)C[C@@](O)(C(C)=O)C[C@@H]3O[C@H]1C[C@H](N)[C@H](OC)[C@H](C)O1 | 2.9 | 156 | Non-toxic |  |  |  | 
2 | COc1cccc2c1C(=O)c1c(O)c3c(c(O)c1C2=O)C[C@@](O)(C(=O)CO)C[C@@H]3O[C@H]1C[C@H](N)[C@H](OC)[C@H](C)O1 | 6.6 |  |  | 287 | 231 | 62 | T/C [4]: 270%; Activity [5]: Non-toxic
3 | COc1cccc2c1C(=O)c1c(O)c3c(c(O)c1C2=O)C[C@@](O)(C(C)=O)C[C@@H]3O[C@H]1C[C@H](N)[C@@H](OC)[C@H](C)O1 | 20 |  |  |  |  |  | T/C [9]: 174%; Activity [10]: Non-toxic
4 | COc1cccc2c1C(=O)c1c(O)c3c(c(O)c1C2=O)C[C@@](O)(C(=O)CO)C[C@@H]3O[C@H]1C[C@H](N)[C@@H](OC)[C@H](C)O1 |  |  |  |  | 169 | 187 | T/C [11]: 181%; T/C [12]: 87%
5 | COc1cccc2c1C(=O)c1c(O)c3c(c(O)c1C2=O)C[C@@](O)(C(C)=O)C[C@@H]3O[C@H]1C[C@H](N)[C@H](O)[C@H](C)O1 [DAUNORUBICIN] | 2.9 | 169 | Non-toxic |  |  |  | 
6 | COc1cccc2c1C(=O)c1c(O)c3c(c(O)c1C2=O)C[C@@](O)(C(=O)CO)C[C@@H]3O[C@H]1C[C@H](N)[C@H](O)[C@H](C)O1 [DOXORUBICIN] | 4.4 |  |  | 169 | 175 | 187 | T/C [13]: 254%; Activity [14]: Non-toxic
